According to PMC3349995 (Journal of Natural Products, 2012):
Values after ≈ are worked out from the molar mass of the structure shown.

Columns and labels:
[1] = tested on: methicillin-resistant Staphylococcus aureus (MRSA, ATCC #33591); experiment: Antibacterial assay, MIC by dilution antimicrobial susceptibility test; format: cell-based; conditions: ATCC33591|MRSA, 18 h, read-out: MIC against MRSA
[2] = tested on: methicillin-sensitive Staphylococcus aureus (MSSA, ATCC #29213); experiment: as above; format: cell-based; conditions: ATCC29213|MSSA, 18 h, read-out: MIC against MSSA
[3] = qualitative statement from the literature; cited from earlier work

Row | Molecule | MIC [1] [µg/mL] | MIC [2] [µg/mL] | antibacterial activity (reported) [3]
1 | CN[C@H](CC(C)C)C(=O)N[C@H]1C(=O)N[C@@H](CC(N)=O)C(=O)N[C@H]2C(=O)N[C@H]3C(=O)N[C@H](C(=O)N[C@H](C(=O)O)c4cc(O)cc(O)c4-c4cc3ccc4O)[C@H](O)c3ccc(c(Cl)c3)Oc3cc2cc(c3O[C@@H]2O[C@H](CO)[C@@H](O)[C@H](O)[C@H]2O[C@H]2C[C@](C)(N)[C@H](O)[C@H](C)O2)Oc2ccc(cc2Cl)[C@H]1O [Vancomycin] | 1 (≈ 0.69 µM) | 1 (≈ 0.69 µM) | –
2 | peptidolipin NA | – | – | moderate antibacterial activity
